Assays:
Mus musculus [1] = test: Anxiolytic activity in albino Swiss CD-1 mouse assessed as increase in number of punished crossings at 5 mg/kg, ip administered 30 mins prior to test by four-plate test relative to control; format: functional
Mus musculus [2] = test: Anxiolytic activity in albino Swiss CD-1 mouse assessed as increase in number of punished crossings at 10 mg/kg, ip administered 30 mins prior to test by four-plate test relative to control; format: functional
[3] = Terminal half life in CD-1 mouse plasma at 5 mg/kg, ip measured up to 480 mins by LC/ESI-MS/MS analysis; format: ADME, organism-based; conditions: read-out: beta t1/2
[4] = Apparent volume of distribution in CD-1 mouse plasma at 5 mg/kg, ip measured up to 480 mins by LC/ESI-MS/MS analysis; format: ADME, organism-based
[5] = Apparent clearance in CD-1 mouse plasma at 5 mg/kg, ip measured up to 480 mins by LC/ESI-MS/MS analysis; format: ADME, organism-based
[6] = AUC (0 to total) in CD-1 mouse brain at 5 mg/kg, ip measured up to 480 mins by LC/ESI-MS/MS analysis; format: ADME, organism-based; conditions: in vivo, 8 h
[7] = Terminal half life in CD-1 mouse brain at 5 mg/kg, ip measured up to 480 mins by LC/ESI-MS/MS analysis; format: ADME, organism-based; conditions: read-out: beta t1/2
[8] = MRT in CD-1 mouse brain at 5 mg/kg, ip measured up to 480 mins by LC/ESI-MS/MS analysis; format: ADME, organism-based
[9] = Mutagenicity in Salmonella typhimurium TA98 at 5 ug/plate preincubated for 20 mins followed by addition of top agar and measured after 48 hrs by Ames test; format: toxicity; conditions: salmonella enterica subsp. enterica serovar typhimurium
[10] = Mutagenicity in Salmonella typhimurium TA100 at 100 ug/plate preincubated for 20 mins followed by addition of top agar and measured after 48 hrs by Ames test; format: toxicity; conditions: salmonella enterica subsp. enterica serovar typhimurium
[11] = molecular target: Adenosine receptor A1 (Homo sapiens) (UniProt P30542); test: Displacement of [3H]DPCPX from recombinant human A1 receptor at 10 uM after 60 mins by radiometric scintillation analysis relative to control
Adenosine receptor A1 (Homo sapiens), sequence (P30542 whole entry): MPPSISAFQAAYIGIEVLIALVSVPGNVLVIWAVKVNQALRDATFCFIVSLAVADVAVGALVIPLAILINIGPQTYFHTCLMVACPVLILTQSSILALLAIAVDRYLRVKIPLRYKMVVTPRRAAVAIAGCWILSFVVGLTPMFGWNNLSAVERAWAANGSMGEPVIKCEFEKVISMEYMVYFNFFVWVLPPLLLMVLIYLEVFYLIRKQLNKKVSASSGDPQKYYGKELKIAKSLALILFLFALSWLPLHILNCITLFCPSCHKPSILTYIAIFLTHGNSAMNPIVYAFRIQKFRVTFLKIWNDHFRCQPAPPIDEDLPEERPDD

[12] = molecular target: Adenosine receptor A3 (Homo sapiens) (UniProt P0DMS8); test: Displacement of [125I]AB-MECA from recombinant human A3 receptor at 10 uM after 120 mins by radiometric scintillation analysis relative to control
Adenosine receptor A3 (Homo sapiens), sequence (P0DMS8 whole entry): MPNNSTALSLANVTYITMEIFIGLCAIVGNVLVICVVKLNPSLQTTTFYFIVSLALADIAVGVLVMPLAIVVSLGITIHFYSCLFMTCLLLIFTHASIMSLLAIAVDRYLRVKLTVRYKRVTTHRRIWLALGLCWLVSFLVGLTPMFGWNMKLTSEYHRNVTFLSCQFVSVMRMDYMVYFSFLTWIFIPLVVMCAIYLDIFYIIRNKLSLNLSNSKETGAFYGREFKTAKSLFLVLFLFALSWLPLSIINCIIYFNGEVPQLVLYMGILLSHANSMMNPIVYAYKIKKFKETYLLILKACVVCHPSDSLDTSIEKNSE

[13] = molecular target: Adrenergic receptor alpha-1 (Rattus norvegicus) (UniProt P15823+P23944+P43140); test: Displacement of [3H]prazosin from rat brain alpha 1 receptor at 10 uM after 60 mins by radiometric scintillation analysis relative to control
[14] = molecular target: Type-1 angiotensin II receptor (Homo sapiens) (UniProt P30556); test: Displacement of [125I][Sar1,Ile8]-AT-II from recombinant human AT1 receptor at 10 uM after 120 mins by radiometric scintillation analysis relative to control
Type-1 angiotensin II receptor (Homo sapiens), sequence (P30556 whole entry): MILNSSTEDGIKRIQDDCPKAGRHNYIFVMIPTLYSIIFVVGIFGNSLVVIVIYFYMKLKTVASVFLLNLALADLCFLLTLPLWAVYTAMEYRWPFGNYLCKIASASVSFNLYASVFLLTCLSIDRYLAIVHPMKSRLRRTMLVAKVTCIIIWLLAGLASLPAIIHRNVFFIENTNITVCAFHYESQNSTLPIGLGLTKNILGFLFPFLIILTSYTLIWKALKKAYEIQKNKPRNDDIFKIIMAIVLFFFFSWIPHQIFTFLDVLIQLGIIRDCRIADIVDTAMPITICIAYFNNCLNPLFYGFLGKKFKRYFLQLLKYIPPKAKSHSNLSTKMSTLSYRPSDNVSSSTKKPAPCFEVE

Rattus norvegicus [15] = species: Rattus norvegicus; test: Displacement of [3H]-Flumazenil from GABAA/BZD receptor in rat cortical membranes incubated for 60 mins by radioligand binding assay relative to control; format: cell membranes
[16] = molecular target: B2 bradykinin receptor (Homo sapiens) (UniProt P30411); test: Displacement of [3H]bradykinin from recombinant human B2 receptor at 10 uM after 60 mins by radiometric scintillation analysis relative to control
B2 bradykinin receptor (Homo sapiens), sequence (P30411 whole entry): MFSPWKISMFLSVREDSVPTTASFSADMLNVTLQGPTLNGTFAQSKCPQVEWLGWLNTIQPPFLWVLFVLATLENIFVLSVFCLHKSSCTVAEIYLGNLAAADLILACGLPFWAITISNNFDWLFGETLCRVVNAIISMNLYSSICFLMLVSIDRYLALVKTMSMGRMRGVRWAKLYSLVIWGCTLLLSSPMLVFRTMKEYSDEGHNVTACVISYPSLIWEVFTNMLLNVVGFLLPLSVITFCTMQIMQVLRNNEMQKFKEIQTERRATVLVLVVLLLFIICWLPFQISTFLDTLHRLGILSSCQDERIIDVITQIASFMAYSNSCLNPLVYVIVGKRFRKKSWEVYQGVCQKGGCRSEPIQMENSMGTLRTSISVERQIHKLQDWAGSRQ

[17] = molecular target: D(2) dopamine receptor (Homo sapiens) (UniProt P14416); test: Displacement of [3H]methyl-spiperone from recombinant human D2S dopamine receptor at 10 uM after 60 mins by radiometric scintillation analysis relative to control
D(2) dopamine receptor (Homo sapiens), sequence (P14416 whole entry): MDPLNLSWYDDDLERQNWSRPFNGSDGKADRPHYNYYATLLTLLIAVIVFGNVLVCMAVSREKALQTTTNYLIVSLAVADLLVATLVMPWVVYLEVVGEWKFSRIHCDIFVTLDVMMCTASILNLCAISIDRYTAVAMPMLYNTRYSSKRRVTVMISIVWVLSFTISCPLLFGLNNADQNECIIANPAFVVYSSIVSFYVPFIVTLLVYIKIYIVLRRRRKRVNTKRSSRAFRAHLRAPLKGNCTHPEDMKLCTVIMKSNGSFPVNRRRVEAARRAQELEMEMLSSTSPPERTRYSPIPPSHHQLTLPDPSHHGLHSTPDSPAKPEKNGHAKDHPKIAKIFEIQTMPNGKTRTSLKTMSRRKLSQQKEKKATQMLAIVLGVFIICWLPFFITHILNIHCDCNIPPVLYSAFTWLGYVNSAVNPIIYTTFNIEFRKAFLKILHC

Rattus norvegicus [18] = species: Rattus norvegicus; test: Displacement of [3H]GABA from rat brain GABA receptor at 10 uM after 30 mins by radiometric scintillation analysis relative to control
[19] = molecular target: C-C chemokine receptor type 1 (Homo sapiens) (UniProt P32246); test: Displacement of [125I]MIP-1alpha from recombinant human CCR1 receptor at 10 uM after 120 mins by radiometric scintillation analysis relative to control
[20] = molecular target: Histamine H2 receptor (Homo sapiens) (UniProt P25021); test: Displacement of [125I]APT from recombinant human H2 histamine receptor at 10 uM after 120 mins by radiometric scintillation counting analysis relative to control
Histamine H2 receptor (Homo sapiens), sequence (P25021 whole entry): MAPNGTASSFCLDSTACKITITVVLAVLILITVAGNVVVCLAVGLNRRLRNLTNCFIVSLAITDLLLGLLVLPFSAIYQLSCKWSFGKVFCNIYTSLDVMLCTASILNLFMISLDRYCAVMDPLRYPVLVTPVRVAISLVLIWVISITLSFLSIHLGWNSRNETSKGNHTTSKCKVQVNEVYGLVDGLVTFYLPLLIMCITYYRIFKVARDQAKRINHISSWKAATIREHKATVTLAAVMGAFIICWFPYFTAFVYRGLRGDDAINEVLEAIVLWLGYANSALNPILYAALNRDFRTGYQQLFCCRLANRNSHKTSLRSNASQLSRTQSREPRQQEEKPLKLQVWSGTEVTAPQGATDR

[21] = molecular target: Muscarinic acetylcholine receptor M1 (Homo sapiens) (UniProt P11229); test: Displacement of [3H]pirenzepine from recombinant human M1 receptor at 10 uM after 60 mins by radiometric scintillation analysis relative to control
[22] = molecular target: Muscarinic acetylcholine receptor M2 (Homo sapiens) (UniProt P08172); test: Displacement of [3H]AF-DX 384 from recombinant human M2 receptor at 10 uM after 60 mins by radiometric scintillation analysis relative to control
Muscarinic acetylcholine receptor M2 (Homo sapiens), sequence (P08172 whole entry): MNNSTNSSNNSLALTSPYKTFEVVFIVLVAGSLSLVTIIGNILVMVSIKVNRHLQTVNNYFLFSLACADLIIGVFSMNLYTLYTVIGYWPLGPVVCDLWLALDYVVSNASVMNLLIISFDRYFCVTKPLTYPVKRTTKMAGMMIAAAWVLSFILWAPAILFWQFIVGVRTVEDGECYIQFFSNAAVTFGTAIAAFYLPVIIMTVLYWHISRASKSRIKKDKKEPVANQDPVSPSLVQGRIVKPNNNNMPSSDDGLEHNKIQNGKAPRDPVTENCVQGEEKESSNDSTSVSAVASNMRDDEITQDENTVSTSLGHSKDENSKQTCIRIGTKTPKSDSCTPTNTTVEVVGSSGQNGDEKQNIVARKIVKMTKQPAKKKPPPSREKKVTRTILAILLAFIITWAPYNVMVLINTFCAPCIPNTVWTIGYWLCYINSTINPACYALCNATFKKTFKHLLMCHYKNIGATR

[23] = molecular target: Muscarinic acetylcholine receptor M3 (Homo sapiens) (UniProt P20309); test: Displacement of [3H]4-DAMP from recombinant human M3 receptor at 10 uM after 60 mins by radiometric scintillation analysis relative to control
Muscarinic acetylcholine receptor M3 (Homo sapiens), sequence (P20309 whole entry, looked up): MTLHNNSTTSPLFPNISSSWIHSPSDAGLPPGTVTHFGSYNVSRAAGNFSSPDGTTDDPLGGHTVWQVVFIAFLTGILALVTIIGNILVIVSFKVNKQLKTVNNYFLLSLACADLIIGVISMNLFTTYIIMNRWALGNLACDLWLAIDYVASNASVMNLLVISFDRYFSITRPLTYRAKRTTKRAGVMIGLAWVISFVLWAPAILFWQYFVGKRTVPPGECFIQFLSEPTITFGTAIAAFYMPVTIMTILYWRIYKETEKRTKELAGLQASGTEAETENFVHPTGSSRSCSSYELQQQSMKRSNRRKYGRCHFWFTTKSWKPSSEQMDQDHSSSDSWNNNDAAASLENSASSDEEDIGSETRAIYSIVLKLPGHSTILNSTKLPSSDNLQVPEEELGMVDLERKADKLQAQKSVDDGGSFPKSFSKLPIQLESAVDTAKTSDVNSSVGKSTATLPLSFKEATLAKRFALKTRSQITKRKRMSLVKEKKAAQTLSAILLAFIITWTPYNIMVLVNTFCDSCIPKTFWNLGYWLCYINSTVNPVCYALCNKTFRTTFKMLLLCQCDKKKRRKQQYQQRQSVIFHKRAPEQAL

[24] = molecular target: Neuropeptide Y receptor type 1 (Homo sapiens) (UniProt P25929); test: Displacement of [125I]peptide YY from human Y1 receptor at 10 uM after 120 mins by radiometric scintillation analysis relative to control
[25] = molecular target: Delta-type opioid receptor (Homo sapiens) (UniProt P41143); test: Displacement of [3H]DADLE from recombinant human DOR receptor at 10 uM after 60 mins by radiometric scintillation analysis relative to control
[26] = molecular target: 5-hydroxytryptamine receptor 1A (Homo sapiens) (UniProt P08908); test: Displacement of [3H]8-OH-DPAT from recombinant human 5-HT1A receptor at 10 uM after 60 mins by radiometric scintillation analysis relative to control
[27] = molecular target: T1, 5-hydroxytryptamine receptor 2A (Homo sapiens, UniProt P28223); test: Displacement of [3H]ketanserin from recombinant human 5-HT2A receptor at 10 uM after 60 mins by radiometric scintillation analysis relative to control
T1 sequence (P28223 whole entry): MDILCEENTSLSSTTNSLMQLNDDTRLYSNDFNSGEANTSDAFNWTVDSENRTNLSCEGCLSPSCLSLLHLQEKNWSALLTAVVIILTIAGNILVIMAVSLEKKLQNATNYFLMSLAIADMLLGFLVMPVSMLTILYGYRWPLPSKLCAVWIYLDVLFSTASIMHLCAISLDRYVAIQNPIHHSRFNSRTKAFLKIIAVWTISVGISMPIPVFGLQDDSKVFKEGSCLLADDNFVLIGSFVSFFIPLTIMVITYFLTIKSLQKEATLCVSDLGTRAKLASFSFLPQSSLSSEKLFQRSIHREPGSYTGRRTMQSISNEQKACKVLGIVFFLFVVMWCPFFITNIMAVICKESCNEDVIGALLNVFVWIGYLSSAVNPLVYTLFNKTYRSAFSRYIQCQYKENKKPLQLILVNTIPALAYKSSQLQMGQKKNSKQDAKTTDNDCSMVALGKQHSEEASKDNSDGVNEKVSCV

[28] = molecular target: 5-hydroxytryptamine receptor 5A (Homo sapiens) (UniProt P47898); test: Displacement of [3H]LSD from recombinant human 5-HT5A receptor at 10 uM after 120 mins by radiometric scintillation analysis relative to control
5-hydroxytryptamine receptor 5A (Homo sapiens), sequence (P47898 whole entry): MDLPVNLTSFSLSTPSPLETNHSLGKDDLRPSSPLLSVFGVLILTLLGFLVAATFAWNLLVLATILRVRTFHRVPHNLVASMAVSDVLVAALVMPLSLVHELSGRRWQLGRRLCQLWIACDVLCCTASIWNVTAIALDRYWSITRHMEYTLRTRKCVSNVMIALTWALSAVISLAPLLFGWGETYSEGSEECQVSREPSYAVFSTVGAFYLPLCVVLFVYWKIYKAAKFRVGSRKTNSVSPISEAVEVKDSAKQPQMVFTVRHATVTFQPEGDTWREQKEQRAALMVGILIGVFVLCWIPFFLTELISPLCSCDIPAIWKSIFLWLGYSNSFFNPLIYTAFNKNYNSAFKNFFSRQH

[29] = molecular target: Vasopressin V1a receptor (Homo sapiens) (UniProt P37288); test: Displacement of [3H]AVP recombinant human V1A receptor at 10 uM after 60 mins by radiometric scintillation analysis relative to control
Rattus norvegicus [30] = species: Rattus norvegicus; test: Displacement of [3H]batrachotoxinin from rat brain sodium channel site 2 at 10 uM after 60 mins by scintillation counting analysis relative to control relative to control
[31] = molecular target: Sodium-dependent serotonin transporter (Homo sapiens) (UniProt P31645); test: Displacement of [3H]imipramine recombinant human 5-HT transporter at 10 uM after 60 mins by radiometric scintillation analysis relative to control
Sodium-dependent serotonin transporter (Homo sapiens), sequence (P31645 whole entry, looked up): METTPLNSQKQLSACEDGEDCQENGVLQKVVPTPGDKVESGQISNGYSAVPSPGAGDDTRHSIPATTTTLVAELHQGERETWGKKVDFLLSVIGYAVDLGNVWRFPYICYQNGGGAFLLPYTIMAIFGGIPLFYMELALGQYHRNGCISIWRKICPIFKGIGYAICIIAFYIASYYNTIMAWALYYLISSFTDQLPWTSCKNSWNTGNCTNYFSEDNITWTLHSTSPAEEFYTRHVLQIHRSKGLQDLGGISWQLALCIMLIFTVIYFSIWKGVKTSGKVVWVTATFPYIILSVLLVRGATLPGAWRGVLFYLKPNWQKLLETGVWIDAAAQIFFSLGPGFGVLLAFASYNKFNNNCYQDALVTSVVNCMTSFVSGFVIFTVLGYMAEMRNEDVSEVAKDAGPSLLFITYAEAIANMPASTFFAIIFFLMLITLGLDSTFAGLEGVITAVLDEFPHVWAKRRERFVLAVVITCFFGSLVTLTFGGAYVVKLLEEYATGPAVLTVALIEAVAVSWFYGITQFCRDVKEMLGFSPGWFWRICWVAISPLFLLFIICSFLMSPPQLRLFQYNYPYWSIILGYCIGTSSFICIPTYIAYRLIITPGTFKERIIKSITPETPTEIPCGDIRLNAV

[32] = molecular target: T1, 5-hydroxytryptamine receptor 2A; test: Displacement of [3H]ketanserin from recombinant human 5-HT2A receptor after 60 mins by radiometric scintillation analysis
[33] = Displacement of [3H]batrachotoxinin from rat brain sodium channel site 2 after 60 mins by scintillation counting analysis
[34] = Drug metabolism in mouse liver microsomes assessed as metabolite formation by measuring retention time at 20 uM after 30 to 60 mins in presence of NADP by UPLC/MS analysis; format: ADME, Microsome

Cl.Cl.O=c1c2cc(Cl)ccc2oc2ccc(CN3CCN(CCOCCO)CC3)cc12
Activity (Mus musculus [1]): 66.6% | Activity (Mus musculus [2]): 50.1% | half-life [3]: 2.89 h | Vd/F [4]: 3.06 L/kg | CL/F [5]: 12.2 mL/min/kg | AUCt [6]: 3227321 ng·min/g | half-life [7]: 2.88 h | MRT [8]: 2.58 h | Activity_index [9]: 1.03 | Activity_index [10]: 0.45 | inhibition [11]: 0.6% | inhibition [12]: 42.9% | inhibition [13]: 8.5% | inhibition [14]: 8.4% | inhibition (Rattus norvegicus [15]): 9.4% | inhibition [16]: -7% | inhibition [17]: 27.4% | inhibition (Rattus norvegicus [18]): 11.7% | inhibition [19]: -3.1% | inhibition [20]: 10.3% | inhibition [21]: 52.3% | inhibition [22]: 35.9% | inhibition [23]: 50.1% | inhibition [24]: -9.5% | inhibition [25]: 27.1% | inhibition [26]: -2.6% | inhibition [27]: 62.8% | inhibition [28]: 13.8% | inhibition [29]: -0.2% | inhibition (Rattus norvegicus [30]): 78.7% | inhibition [31]: 24.8% | Ki [32]: 2.02 µM | Ki [33]: 1.34 µM | Retention_time [34]: 4.49 min
